Where “and” joins values, the source holds several entries; their conditions need not be identical. Equal entries are not always repeated.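 Five compound concentrations were applied to cells in 96-well plates for 48 hours; endpoints were derived by simple linear interpolation of the resulting dose-response curve. GI50 marks 50% less growth. Definition used: TGI = concentration required for complete inhibition of growth.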
Tests used:
Assay in all cases: inhibition of tumour cell growth, NCI panel, 48 h
MALME-3M melanoma = system: MALME-3M melanoma
NCI-H522 lung = system: NCI-H522 lung
COLO 205 colon = system: COLO 205 colon
SF-539 CNS = system: SF-539 CNS
ACHN renal = system: ACHN renal
SK-MEL-2 melanoma = system: SK-MEL-2 melanoma
IGROV1 ovarian = system: IGROV1 ovarian
M14 melanoma = system: M14 melanoma
HT29 colon = system: HT29 colon
K-562 leukemia = system: K-562 leukemia

SMILES | TGI (MALME-3M melanoma) | TGI (NCI-H522 lung) | TGI (COLO 205 colon) | TGI (SF-539 CNS) | TGI (ACHN renal) | TGI (SK-MEL-2 melanoma) | TGI (IGROV1 ovarian) | TGI (M14 melanoma) | TGI (HT29 colon) | TGI (K-562 leukemia) | GI50 (MALME-3M melanoma) | GI50 (NCI-H522 lung) | GI50 (COLO 205 colon) | GI50 (SF-539 CNS) | GI50 (ACHN renal) | GI50 (SK-MEL-2 melanoma) | GI50 (IGROV1 ovarian) | GI50 (M14 melanoma) | GI50 (HT29 colon) | GI50 (K-562 leukemia)
COC12c3ccccc3-c3ccccc3C1[C@@H](C(=O)O)[C@H]2C(=O)O (stereo partly drawn) | > 10 µM | > 10 µM | > 10 µM | > 10 µM | > 10 µM | > 10 µM | > 10 µM | > 10 µM | > 10 µM | > 10 µM |  |  |  |  |  |  |  |  |  | 
Cn1cc(-c2ccc3c(c2)ncn3-c2ccc(CC(=O)Nc3cc(C(C)(C)C)on3)cc2)cn1 | 12.6 µM | 13.9 µM | 5.24 µM | 1.74 µM | 10.9 µM | 5.14 µM | 1.31 µM | 10.5 µM | > 36.7 µM | > 100 µM | 1.29 µM | 2.27 µM | 1.95 µM | 0.175 µM | 0.405 µM | 1.99 µM | 0.235 µM | 1.1 µM | 2.6 µM | 0.0284 µM
NCCCNCCCNc1nc2ccccc2c2[nH]c3ccccc3c12 | 2.74 µM | 0.563 µM | 2.12 µM | 1.55 µM | 2.82 µM | 2.42 µM | 1.03 µM | 2.35 µM | 1.86 µM |  | 1 µM | 0.00716 µM | 0.182 µM | 0.156 µM | 0.112 µM | 0.703 µM | 0.0837 µM | 0.672 µM | 0.0482 µM | 0.0578 µM
CCN(CC)c1ccc(/C=C/C2=[N+](C)c3ccccc3C2(C)C)cc1 | 3.29 µM | 21.8 µM | 0.392 µM | 13.9 µM | 14.6 µM | > 35.9 µM | > 85.6 µM | 19.5 µM | > 40.5 µM | > 100 µM | 0.29 µM | 0.274 µM | 0.161 µM | 0.776 µM | 1.48 µM | 0.487 µM | 0.709 µM | 0.581 µM | 0.148 µM | 3.44 µM
CC1(C)CCC(CN2CCN(c3ccc(C(=O)NS(=O)(=O)c4ccc(NCC5CCOCC5)c([N+](=O)[O-])c4)c(Oc4cnc5[nH]ccc5c4)c3)CC2)=C(c2ccc(Cl)cc2)C1 | 3.64 µM | 7.23 µM | 3.7 µM | 5.62 µM | 10.2 µM | 3.36 µM | 9.57 µM | 7.07 µM | 6.45 µM | 26.9 µM | 1.82 µM | 2.46 µM | 1.95 µM | 2.41 µM | 2.93 µM | 1.63 µM | 2.98 µM | 2.54 µM | 2.49 µM | 3.5 µM
COc1cc2c(c(Br)c1N)-c1cc(Br)c(N)cc1C2=O | > 100 µM | 59.6 µM | > 100 µM | > 100 µM | > 100 µM | > 100 µM | > 100 µM | > 100 µM | > 100 µM | > 100 µM | > 100 µM | 9.15 µM | > 87 µM | 4.93 µM | > 100 µM | > 100 µM | 0.205 µM | 50.9 µM | > 100 µM | > 100 µM
CCN1CCC(O)(c2ccccc2)C(C(=O)c2ccccc2)C1 (stereo not drawn) | 38.4 µM | 6.87 µM | 53.1 µM | > 100 µM | 30.5 µM | > 100 µM | > 100 µM | 34.4 µM | 39.7 µM | > 66 µM |  |  |  |  |  |  |  |  |  | 
O=C(O)Cc1ccccc1 | > 1000 µM and 1970 µM | > 2000 µM | > 2000 µM | > 2000 µM | > 2000 µM | > 2000 µM | > 2000 µM | > 2000 µM | > 2000 µM | > 1000 µM and 1010 µM | > 1000 µM | > 1000 µM | > 1000 µM | > 1000 µM | > 1000 µM | > 1000 µM | > 1000 µM | > 1000 µM |  | > 1000 µM
Cn1cccc1C1CC(=O)N(CCC[Se]C#N)C1=O (stereo not drawn) | 4.12 µM | 4.04 µM | 4.88 µM | 3.66 µM | 4.4 µM | 5.31 µM | 4.68 µM | 3.89 µM | 28.6 µM | 29.9 µM | 1.89 µM | 1.87 µM | 2.1 µM | 1.96 µM | 2.11 µM | 2.13 µM | 1.86 µM | 1.56 µM | 2.72 µM | 3.2 µM
O=C(Nc1ccc(Cl)cc1)C(=O)C1=C(O)c2ccccc2OC1 | > 100 µM | > 100 µM | > 100 µM | > 100 µM | > 100 µM | > 100 µM | > 100 µM | > 100 µM | > 100 µM | > 100 µM |  |  |  |  |  |  |  |  |  | 
CC[C@]12C=CCN3CC[C@]4(C(=C(C(=O)OC)C1)Nc1ccccc14)[C@@H]32 | 15.2 µM | 14.1 µM | 20 µM | 10.1 µM | 4.54 µM | 17.7 µM | 20.6 µM | 12.5 µM | 12.8 µM | 15.1 µM | 3.43 µM | 3.24 µM | 5.62 µM | 3.09 µM | 2.07 µM | 4.45 µM | 5.8 µM | 2.97 µM | 3.41 µM | 3.08 µM
